# Laboratory results taken from PubChem BioAssay AID1963825 (Molecular Pharmacology Branch, DTP, NCI, 2024).
# Assay: Anticancer human tumor 997537-175-T-J1-PDC patient-derived colon adenocarcinoma cell line growth inhibition [POLQ]
# Conditions: 997537-175-T-J1-PDC complex spheroid viability, combination with POLQ inhibitors; second compound 3.16 µM; first compound 0.1 µM; active compounds read low
# In short: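 Growth inhibition in 3D: complex spheroids (tumor PDC, HUVEC, MSC) treated with POLQ inhibitor combinations; where Cmax unknown, highest tested concentration 10 microM, except SN-38 at 1 microM.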
# 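Also: luminescence signal used as a surrogate for viable cells; spheroids exposed to drugs for seven days before readout.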
row,Compound,"viability, T/C [%]"
1,CCc1cc2c(N3CCc4c(cc(Cn5ccnc5)cc4-c4cn(C)nc4C(F)(F)F)C3=O)cc(C)nc2c(OC)n1 + Nc1ccc(C#CCN(C(=O)Cc2ncc(C(F)(F)F)cc2C(F)(F)F)c2ccc(F)cc2)nn1,103
2,COc1ccc([C@@H](O)c2cc(-c3ncnc4cc(N5CCOCC5)ccc34)c(F)cc2Cl)nn1 + Nc1ccc(C#CCN(C(=O)Cc2ncc(C(F)(F)F)cc2C(F)(F)F)c2ccc(F)cc2)nn1,99.1
3,COc1cc2cc(C(=O)CCC(=O)O)sc2cc1OC + Cc1cccc(N(C)C(=O)C2C(O)CCN2c2nc(C)cc(C(F)(F)F)c2C#N)c1,121
4,COc1cccc(OCCCN)c1-c1cc(Nc2cnc(C#N)cn2)n[nH]1 + COC1C(OC(N)=O)C(O)C(Oc2ccc3c(O)c(NC(=O)c4ccc(O)c(CC=C(C)C)c4)c(=O)oc3c2C)OC1(C)C,48.7

# Same assay, conditions: 997537-175-T-J1-PDC complex spheroid viability, combination with POLQ inhibitors; second compound 3.16 µM; first compound 0.316 µM; active compounds read low
row,Compound,"viability, T/C [%]"
1,CCc1cc2c(N3CCc4c(cc(Cn5ccnc5)cc4-c4cn(C)nc4C(F)(F)F)C3=O)cc(C)nc2c(OC)n1 + Nc1ccc(C#CCN(C(=O)Cc2ncc(C(F)(F)F)cc2C(F)(F)F)c2ccc(F)cc2)nn1,99.7
2,COc1ccc([C@@H](O)c2cc(-c3ncnc4cc(N5CCOCC5)ccc34)c(F)cc2Cl)nn1 + Nc1ccc(C#CCN(C(=O)Cc2ncc(C(F)(F)F)cc2C(F)(F)F)c2ccc(F)cc2)nn1,96.7
3,COc1cc2cc(C(=O)CCC(=O)O)sc2cc1OC + Cc1cccc(N(C)C(=O)C2C(O)CCN2c2nc(C)cc(C(F)(F)F)c2C#N)c1,90.5
4,COc1cccc(OCCCN)c1-c1cc(Nc2cnc(C#N)cn2)n[nH]1 + COC1C(OC(N)=O)C(O)C(Oc2ccc3c(O)c(NC(=O)c4ccc(O)c(CC=C(C)C)c4)c(=O)oc3c2C)OC1(C)C,28.6

# Same assay, conditions: 997537-175-T-J1-PDC complex spheroid viability, combination with POLQ inhibitors; second compound 3.16 µM; first compound 1 µM; active compounds read low
row,Compound,"viability, T/C [%]"
1,CCc1cc2c(N3CCc4c(cc(Cn5ccnc5)cc4-c4cn(C)nc4C(F)(F)F)C3=O)cc(C)nc2c(OC)n1 + Nc1ccc(C#CCN(C(=O)Cc2ncc(C(F)(F)F)cc2C(F)(F)F)c2ccc(F)cc2)nn1,89.7
2,COc1ccc([C@@H](O)c2cc(-c3ncnc4cc(N5CCOCC5)ccc34)c(F)cc2Cl)nn1 + Nc1ccc(C#CCN(C(=O)Cc2ncc(C(F)(F)F)cc2C(F)(F)F)c2ccc(F)cc2)nn1,96.6
3,COc1cc2cc(C(=O)CCC(=O)O)sc2cc1OC + Cc1cccc(N(C)C(=O)C2C(O)CCN2c2nc(C)cc(C(F)(F)F)c2C#N)c1,96.2
4,COc1cccc(OCCCN)c1-c1cc(Nc2cnc(C#N)cn2)n[nH]1 + COC1C(OC(N)=O)C(O)C(Oc2ccc3c(O)c(NC(=O)c4ccc(O)c(CC=C(C)C)c4)c(=O)oc3c2C)OC1(C)C,47.1

# Same assay, conditions: 997537-175-T-J1-PDC complex spheroid viability, combination with POLQ inhibitors; second compound 3.16 µM; first compound 3.16 µM; active compounds read low
row,Compound,"viability, T/C [%]"
1,CCc1cc2c(N3CCc4c(cc(Cn5ccnc5)cc4-c4cn(C)nc4C(F)(F)F)C3=O)cc(C)nc2c(OC)n1 + Nc1ccc(C#CCN(C(=O)Cc2ncc(C(F)(F)F)cc2C(F)(F)F)c2ccc(F)cc2)nn1,65.4
2,COc1ccc([C@@H](O)c2cc(-c3ncnc4cc(N5CCOCC5)ccc34)c(F)cc2Cl)nn1 + Nc1ccc(C#CCN(C(=O)Cc2ncc(C(F)(F)F)cc2C(F)(F)F)c2ccc(F)cc2)nn1,87.6
3,COc1cc2cc(C(=O)CCC(=O)O)sc2cc1OC + Cc1cccc(N(C)C(=O)C2C(O)CCN2c2nc(C)cc(C(F)(F)F)c2C#N)c1,115

# Same assay, conditions: 997537-175-T-J1-PDC complex spheroid viability, combination with POLQ inhibitors; second compound 3.16 µM; first compound 10 µM; active compounds read low
row,Compound,"viability, T/C [%]"
1,CCc1cc2c(N3CCc4c(cc(Cn5ccnc5)cc4-c4cn(C)nc4C(F)(F)F)C3=O)cc(C)nc2c(OC)n1 + Nc1ccc(C#CCN(C(=O)Cc2ncc(C(F)(F)F)cc2C(F)(F)F)c2ccc(F)cc2)nn1,73.7
2,COc1ccc([C@@H](O)c2cc(-c3ncnc4cc(N5CCOCC5)ccc34)c(F)cc2Cl)nn1 + Nc1ccc(C#CCN(C(=O)Cc2ncc(C(F)(F)F)cc2C(F)(F)F)c2ccc(F)cc2)nn1,82.1
3,COc1cc2cc(C(=O)CCC(=O)O)sc2cc1OC + Cc1cccc(N(C)C(=O)C2C(O)CCN2c2nc(C)cc(C(F)(F)F)c2C#N)c1,97.8

# Same assay, conditions: 997537-175-T-J1-PDC complex spheroid viability, combination with POLQ inhibitors; second compound 10 µM; first compound 0.00316 µM; active compounds read low
row,Compound,"viability, T/C [%]"
1,COc1cccc(OCCCN)c1-c1cc(Nc2cnc(C#N)cn2)n[nH]1 + COC1C(OC(N)=O)C(O)C(Oc2ccc3c(O)c(NC(=O)c4ccc(O)c(CC=C(C)C)c4)c(=O)oc3c2C)OC1(C)C,95.2

# Same assay, conditions: 997537-175-T-J1-PDC complex spheroid viability, combination with POLQ inhibitors; second compound 10 µM; first compound 0.01 µM; active compounds read low
row,Compound,"viability, T/C [%]"
1,COc1cccc(OCCCN)c1-c1cc(Nc2cnc(C#N)cn2)n[nH]1 + COC1C(OC(N)=O)C(O)C(Oc2ccc3c(O)c(NC(=O)c4ccc(O)c(CC=C(C)C)c4)c(=O)oc3c2C)OC1(C)C,79.8

# Same assay, conditions: 997537-175-T-J1-PDC complex spheroid viability, combination with POLQ inhibitors; second compound 10 µM; first compound 0.0316 µM; active compounds read low
row,Compound,"viability, T/C [%]"
1,CCc1cc2c(N3CCc4c(cc(Cn5ccnc5)cc4-c4cn(C)nc4C(F)(F)F)C3=O)cc(C)nc2c(OC)n1 + Nc1ccc(C#CCN(C(=O)Cc2ncc(C(F)(F)F)cc2C(F)(F)F)c2ccc(F)cc2)nn1,105
2,COc1ccc([C@@H](O)c2cc(-c3ncnc4cc(N5CCOCC5)ccc34)c(F)cc2Cl)nn1 + Nc1ccc(C#CCN(C(=O)Cc2ncc(C(F)(F)F)cc2C(F)(F)F)c2ccc(F)cc2)nn1,99.5
3,COc1cc2cc(C(=O)CCC(=O)O)sc2cc1OC + Cc1cccc(N(C)C(=O)C2C(O)CCN2c2nc(C)cc(C(F)(F)F)c2C#N)c1,98
4,COc1cccc(OCCCN)c1-c1cc(Nc2cnc(C#N)cn2)n[nH]1 + COC1C(OC(N)=O)C(O)C(Oc2ccc3c(O)c(NC(=O)c4ccc(O)c(CC=C(C)C)c4)c(=O)oc3c2C)OC1(C)C,73.1

# Same assay, conditions: 997537-175-T-J1-PDC complex spheroid viability, combination with POLQ inhibitors; second compound 10 µM; first compound 0.1 µM; active compounds read low
row,Compound,"viability, T/C [%]"
1,CCc1cc2c(N3CCc4c(cc(Cn5ccnc5)cc4-c4cn(C)nc4C(F)(F)F)C3=O)cc(C)nc2c(OC)n1 + Nc1ccc(C#CCN(C(=O)Cc2ncc(C(F)(F)F)cc2C(F)(F)F)c2ccc(F)cc2)nn1,104
2,COc1ccc([C@@H](O)c2cc(-c3ncnc4cc(N5CCOCC5)ccc34)c(F)cc2Cl)nn1 + Nc1ccc(C#CCN(C(=O)Cc2ncc(C(F)(F)F)cc2C(F)(F)F)c2ccc(F)cc2)nn1,107
3,COc1cc2cc(C(=O)CCC(=O)O)sc2cc1OC + Cc1cccc(N(C)C(=O)C2C(O)CCN2c2nc(C)cc(C(F)(F)F)c2C#N)c1,104
4,COc1cccc(OCCCN)c1-c1cc(Nc2cnc(C#N)cn2)n[nH]1 + COC1C(OC(N)=O)C(O)C(Oc2ccc3c(O)c(NC(=O)c4ccc(O)c(CC=C(C)C)c4)c(=O)oc3c2C)OC1(C)C,31.4

# Same assay, conditions: 997537-175-T-J1-PDC complex spheroid viability, combination with POLQ inhibitors; second compound 10 µM; first compound 0.316 µM; active compounds read low
row,Compound,"viability, T/C [%]"
1,CCc1cc2c(N3CCc4c(cc(Cn5ccnc5)cc4-c4cn(C)nc4C(F)(F)F)C3=O)cc(C)nc2c(OC)n1 + Nc1ccc(C#CCN(C(=O)Cc2ncc(C(F)(F)F)cc2C(F)(F)F)c2ccc(F)cc2)nn1,87.6
2,COc1ccc([C@@H](O)c2cc(-c3ncnc4cc(N5CCOCC5)ccc34)c(F)cc2Cl)nn1 + Nc1ccc(C#CCN(C(=O)Cc2ncc(C(F)(F)F)cc2C(F)(F)F)c2ccc(F)cc2)nn1,95.7
3,COc1cc2cc(C(=O)CCC(=O)O)sc2cc1OC + Cc1cccc(N(C)C(=O)C2C(O)CCN2c2nc(C)cc(C(F)(F)F)c2C#N)c1,107
4,COc1cccc(OCCCN)c1-c1cc(Nc2cnc(C#N)cn2)n[nH]1 + COC1C(OC(N)=O)C(O)C(Oc2ccc3c(O)c(NC(=O)c4ccc(O)c(CC=C(C)C)c4)c(=O)oc3c2C)OC1(C)C,24.9

# Same assay, conditions: 997537-175-T-J1-PDC complex spheroid viability, combination with POLQ inhibitors; second compound 10 µM; first compound 1 µM; active compounds read low
row,Compound,"viability, T/C [%]"
1,CCc1cc2c(N3CCc4c(cc(Cn5ccnc5)cc4-c4cn(C)nc4C(F)(F)F)C3=O)cc(C)nc2c(OC)n1 + Nc1ccc(C#CCN(C(=O)Cc2ncc(C(F)(F)F)cc2C(F)(F)F)c2ccc(F)cc2)nn1,96.8
2,COc1ccc([C@@H](O)c2cc(-c3ncnc4cc(N5CCOCC5)ccc34)c(F)cc2Cl)nn1 + Nc1ccc(C#CCN(C(=O)Cc2ncc(C(F)(F)F)cc2C(F)(F)F)c2ccc(F)cc2)nn1,95.8
3,COc1cc2cc(C(=O)CCC(=O)O)sc2cc1OC + Cc1cccc(N(C)C(=O)C2C(O)CCN2c2nc(C)cc(C(F)(F)F)c2C#N)c1,105
4,COc1cccc(OCCCN)c1-c1cc(Nc2cnc(C#N)cn2)n[nH]1 + COC1C(OC(N)=O)C(O)C(Oc2ccc3c(O)c(NC(=O)c4ccc(O)c(CC=C(C)C)c4)c(=O)oc3c2C)OC1(C)C,28

# Same assay, conditions: 997537-175-T-J1-PDC complex spheroid viability, combination with POLQ inhibitors; second compound 10 µM; first compound 3.16 µM; active compounds read low
row,Compound,"viability, T/C [%]"
1,CCc1cc2c(N3CCc4c(cc(Cn5ccnc5)cc4-c4cn(C)nc4C(F)(F)F)C3=O)cc(C)nc2c(OC)n1 + Nc1ccc(C#CCN(C(=O)Cc2ncc(C(F)(F)F)cc2C(F)(F)F)c2ccc(F)cc2)nn1,71.8
2,COc1ccc([C@@H](O)c2cc(-c3ncnc4cc(N5CCOCC5)ccc34)c(F)cc2Cl)nn1 + Nc1ccc(C#CCN(C(=O)Cc2ncc(C(F)(F)F)cc2C(F)(F)F)c2ccc(F)cc2)nn1,85.3
3,COc1cc2cc(C(=O)CCC(=O)O)sc2cc1OC + Cc1cccc(N(C)C(=O)C2C(O)CCN2c2nc(C)cc(C(F)(F)F)c2C#N)c1,118

# Same assay, conditions: 997537-175-T-J1-PDC complex spheroid viability, combination with POLQ inhibitors; second compound 10 µM; first compound 10 µM; active compounds read low
row,Compound,"viability, T/C [%]"
1,CCc1cc2c(N3CCc4c(cc(Cn5ccnc5)cc4-c4cn(C)nc4C(F)(F)F)C3=O)cc(C)nc2c(OC)n1 + Nc1ccc(C#CCN(C(=O)Cc2ncc(C(F)(F)F)cc2C(F)(F)F)c2ccc(F)cc2)nn1,76.7
2,COc1ccc([C@@H](O)c2cc(-c3ncnc4cc(N5CCOCC5)ccc34)c(F)cc2Cl)nn1 + Nc1ccc(C#CCN(C(=O)Cc2ncc(C(F)(F)F)cc2C(F)(F)F)c2ccc(F)cc2)nn1,92.7
3,COc1cc2cc(C(=O)CCC(=O)O)sc2cc1OC + Cc1cccc(N(C)C(=O)C2C(O)CCN2c2nc(C)cc(C(F)(F)F)c2C#N)c1,87.3
